Source: paper PMC7465636 (Biomolecules, 2020)
Where two headings read alike, the source gives them in different places.

Key:
P. falciparum 3D7 = assay: In vitro growth assay with flow cytometry, P. falciparum 3D7; assay type: cell-based, Plasmodium falciparum
Method: (§1) Erythrocytes infected with P. falciparum 3D7 and the knockout strain for the PfSR25 receptor (PfSR25-) were kept in 175 cm^2 culture bottles (Greiner Bio-One) containing RPMI 1640 with 0.5% NaHCO3, 0.04% sulfate gentamicin, 0.05% hypoxanthine and supplemented with 0.5% AlbuMAX I (Gibco). The culture bottles were maintained at 37 °C and an atmosphere with 90% N2, 5% O2 and 5% CO2 Parasitemia was determined from a blood smear stained with Panotic Rapid (Laborclin).
(§2) Red blood cells infected with P. falciparum (iRBC) asynchronously with 0.3% initial parasitemia and 1% hematocrit were incubated with different concentrations of compounds ranging from 0.0488 µM to 50 µM, for 72 h at 37 °C under mixture of gases. The control group was treated with solvent Dimethyl Sulfoxide (DMSO) (v/v); with the highest concentration of solvent bring 0.25%.
(§3) Parasitemia was determined from the dot plots (side scatter versus fluorescence) of at least […] acquired on an Accuri C6 flow cytometer (Becton Dickinson). Initial gating was carried out with unstained, uninfected erythrocytes to account for erythrocyte autofluorescence.
(§4) After 72 h, iRBCs were stained with nucleic acid marker SYBR Green I (1X) (Invitrogen) and mitochondria marker based on membrane potential MitoTracker Deep Red (50 nM) (Invitrogen), and were incubated for 20 min. at 37 °C. The final parasitemia was obtained by flow cytometer using a BD Accuri C6 Flow Cytometer, collecting 10^³ cells. Dot plots using FlowJo V10.6.2 software determined Parasitemia. At least three independent experiments were performed in triplicate to calculate the IC50 values for each drug.
In order to identify potential antimalarials present in the library of compounds derived from the 1H-1,2,3-triazoles and 2H-1,2,3-triazoles, we used a culture of P. falciparum (3D7) to perform the screening tests of the compounds. To assess parasitemia at the end of the parasites incubation with the compounds for 72 h, we used a double-label: (1) SYBR Green I to mark DNA and (2) MitoTracker Deep Red as a mitochondria marker. The latter being dependent on the membrane potential, we ensured that only the marking and selection of viable parasites occurred.

[1] = tested on: P. falciparum PfSR25- (knockout strain for the PfSR25 receptor); assay: In vitro growth assay with flow cytometry, PfSR25- knockout strain; assay type: cell-based, Plasmodium falciparum; details: for IC50: Plasmodium falciparum, 72 h
Method: as §1, §2, §3, §4
We also assessed the role of PfSR25 in terms of its susceptibility to compounds with a better antimalarial activity (9, 13, 19, 21, 22, 24 and 29) and compounds with less activity (21) based on the results obtained with the 3D7 screening. Thus, the tests were carried out like that described above and are represented in Figure 5. However, we used the knockout strain for the receptor-like PfSR25- for the tests.

[2] = Plasmodium falciparum, 3D7, 72 h, P. falciparum 3D7, 72 h, 0.0488–50 µM, ± standard error of the mean, read-out: IC50
[3] = P. falciparum 3D7, 72 h, 0.0488–50 µM, ± standard error of the mean, read-out: IC50

Row | Compound | IC50 (P. falciparum 3D7; [2]) [µM] | further results
1 | COc1ccc(-n2cc(COC(=O)c3ccccc3)nn2)cc1 [Compound 12] | 13.5 ± 1.12 | 
2 | Clc1ccc(N/N=C/c2cnn(-c3ccccc3)n2)cc1 [Compound 16] | < 10 | IC50 (P. falciparum 3D7; [3]): 9.29 ± 1.01 µM
3 | O/N=C/c1cn(-c2cc(Cl)ccc2Cl)nn1 [Compound 14] | 21.5 ± 0.84 | 
4 | CCCCCCCCCC(=O)OCc1cn(-c2ccc(OC)cc2)nn1 [Compound 11] | 23.5 ± 2.77 | 
5 | Fc1ccc(N/N=C/c2cnn(-c3ccccc3)n2)cc1 [Compound 17] | 14.7 ± 1.28 | 
6 | COc1ccc(-n2cc(/C=N/Nc3ccc(Cl)cc3)nn2)cc1 [Compound 25, (E)-4-((2-(4-chlorophenyl)hydrazono)methyl)-1-(4-methoxyphenyl)-1H-1,2,3-triazole] | < 10 | IC50 (P. falciparum 3D7; [3]): 9 ± 3.27 µM
7 | O=C(OCc1cn(-c2ccccc2)nn1)c1ccccc1 [Compound 7] | 22.9 ± 0.34 | 
8 | Clc1ccc(N/N=C/c2cn(-c3ccc(Cl)cc3)nn2)cc1 [Compound 18] | 17.6 ± 1.07 | 
9 | Cc1ccc(C)c(N/N=C/c2cn(-c3cc(Cl)cc(Cl)c3)nn2)c1 [Compound 23] | < 10 | IC50 (P. falciparum 3D7; [3]): 9.23 ± 1.68 µM
10 | C(=N\Nc1ccccc1)/c1cnn(-c2ccccc2)n1 [Compound 15] | 18.1 ± 1.92 | 
11 | CCCOCc1cn(-c2cc(Cl)ccc2Cl)nn1 [Compound 4] | 20.4 ± 0.73 | 
12 | COc1ccc(-n2cc(/C=N/NC(=O)c3ccncc3)nn2)cc1 [Compound 30] | 23.2 ± 1.94 | 
13 | C[C@@H]1CC[C@H]2[C@@H](C)C(=O)O[C@@H]3O[C@@]4(C)CC[C@@H]1[C@]32OO4 [Artemisinin, reference compound] |  | IC50 ([1]; read-out: IC50 (dose-response curve, Figure 3B)): 0.0058 ± 0.00172 µM; IC50 (P. falciparum 3D7; Plasmodium falciparum, 3D7, 72 h, 3D7, positive control […] to 160 nM, 72 h, unit inferred, read-out: IC50 (dose-response curve, Figure 3A)): 0.0062 ± 0.00073 µM
14 | CCCCCCCCCC(=O)OCc1cn(-c2cc(Cl)cc(Cl)c2)nn1 [Compound 10] | 14.6 ± 0.29 | 
15 | O=C(N/N=C/c1cnn(-c2ccccc2)n1)c1ccncc1 [Compound 31] | 20.2 ± 0.79 | 
16 | O=C(N/N=C/c1cn(-c2ccc(Cl)cc2)nn1)c1ccncc1 [Compound 28] | 14.5 ± 1.13 | 
17 | CCCCOCc1cn(-c2cc(Cl)cc(Cl)c2)nn1 [Compound 5] | 23.9 ± 2.01 | 
18 | CCOCc1cn(-c2cc(Cl)cc(Cl)c2)nn1 [Compound 2] | 15.4 ± 2.26 | 
19 | CCOCc1cn(-c2ccc(Cl)cc2)nn1 [Compound 1] | 11.7 ± 0.74 | 
20 | Clc1cc(Cl)cc(-n2cc(/C=N/Nc3ccc(Br)cc3)nn2)c1 [Compound 21, (E)-4-((2-(4-bromophenyl)hydrazono)methyl)-1-(3,5-dichlorophenyl)-1H-1,2,3-triazole] | > 25 | IC50 for the knockout strain compared with the 3D7 strain ([1]; PfSR25- versus 3D7): lower IC50 values for the knockout strain; IC50 [1]: 12.4 ± 2.51 µM; IC50 (P. falciparum 3D7; [3]): 29.3 ± 0.34 µM
21 | CCOC(=O)c1cn(-c2ccccc2)nn1 [Compound 6] | 12.8 ± 3.02 | 
22 | CCCOCc1cn(-c2cc(Cl)cc(Cl)c2)nn1 [Compound 3] | 14.5 ± 1.71 | 
23 | O=C(N/N=C/c1cn(-c2ccccc2)nn1)c1ccncc1 [Compound 27] | 23.1 ± 2.58 | 
24 | O=C(OCc1cnn(-c2ccccc2)n1)c1ccccc1 [Compound 8] | > 25 | IC50 (P. falciparum 3D7; [3]): 27.5 ± 1.26 µM
